Measurements from ChEMBL document CHEMBL5053512, “Discovery and Preclinical Pharmacology of an Oral Bromodomain and Extra-Terminal (BET) Inhibitor Using Scaffold-Hopping and Structure-Guided Drug Design” (J Med Chem, 2021).

Tests used:
[1] = Inhibition of c-MYC expression in human JJN3R cells measured after 4 hrs; format: functional, cell-based; settings: JJN-3R
[2] = Antitumour activity against human JJN3R cells measured after 72 hrs by MTS assay; format: functional, cell-based; settings: JJN-3R
[3] = Metabolic stability in human liver microsomes assessed as parent compound remaining at 0.5 uM after 10 mins; format: ADME, Microsome; settings: read-out: Stability
[4] = Metabolic stability in mouse liver microsomes assessed as parent compound remaining at 0.5 uM after 10 mins; format: ADME, Microsome; settings: read-out: Stability
[5] = Permeability coefficient of the compound by PAMPA; format: ADME; settings: read-out: permeability
[6] = Permeability coefficient across apical to basolateral side in human Caco-2 cells; format: ADME, cell-based; settings: read-out: permeability
[7] = Permeability coefficient across basolateral to apical side in human Caco-2 cells; format: ADME, cell-based; settings: read-out: permeability
[8] = Cmax in mouse at 30 mg/kg, po; format: ADME, organism-based; design: dose 30 mg/kg, route po; settings: in vivo
[9] = AUC (0 to 7 hrs) in mouse at 30 mg/kg, po; format: ADME, organism-based; design: time < 7 hr, dose 30 mg/kg, route po; settings: in vivo
[10] = biological target: Bromodomain-containing protein 4 (Homo sapiens, UniProt O60885); experiment: Inhibition of human BRD4 (1 to 477 residues) measured after 60 mins by TR-FRET assay
[11] = Efflux ratio of permeability in human Caco-2 cells; format: ADME, cell-based
[12] = biological target: Bromodomain-containing protein 2 (Homo sapiens, UniProt P25440); experiment: Inhibition of human BRD2 measured by TR-FRET assay
[13] = biological target: Bromodomain-containing protein 3 (Homo sapiens, UniProt Q15059); experiment: Inhibition of human BRD3 measured by TR-FRET assay
Bromodomain-containing protein 3, sequence (Q15059 whole entry): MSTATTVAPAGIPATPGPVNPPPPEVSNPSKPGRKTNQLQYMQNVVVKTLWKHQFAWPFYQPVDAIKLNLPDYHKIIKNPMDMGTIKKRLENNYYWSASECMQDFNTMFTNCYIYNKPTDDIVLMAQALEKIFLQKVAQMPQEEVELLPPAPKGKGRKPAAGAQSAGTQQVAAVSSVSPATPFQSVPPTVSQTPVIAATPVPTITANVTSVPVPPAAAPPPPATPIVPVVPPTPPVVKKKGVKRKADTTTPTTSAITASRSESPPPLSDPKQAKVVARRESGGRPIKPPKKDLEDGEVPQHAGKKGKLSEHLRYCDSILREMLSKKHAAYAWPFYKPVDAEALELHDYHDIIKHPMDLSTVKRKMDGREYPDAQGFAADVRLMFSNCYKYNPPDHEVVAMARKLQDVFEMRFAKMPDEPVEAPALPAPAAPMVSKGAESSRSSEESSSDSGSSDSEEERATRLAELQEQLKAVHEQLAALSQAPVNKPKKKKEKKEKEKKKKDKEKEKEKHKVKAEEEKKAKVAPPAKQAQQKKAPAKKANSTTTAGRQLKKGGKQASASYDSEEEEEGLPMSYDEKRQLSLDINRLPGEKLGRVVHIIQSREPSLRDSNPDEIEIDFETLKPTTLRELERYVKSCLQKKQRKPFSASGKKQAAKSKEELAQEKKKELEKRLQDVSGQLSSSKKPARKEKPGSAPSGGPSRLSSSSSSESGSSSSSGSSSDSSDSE

[14] = biological target: Cytochrome P450 1A2 (Homo sapiens, UniProt P05177); experiment: Inhibition of CYP1A2 (unknown origin); format: ADME
Cytochrome P450 1A2, sequence (P05177 whole entry): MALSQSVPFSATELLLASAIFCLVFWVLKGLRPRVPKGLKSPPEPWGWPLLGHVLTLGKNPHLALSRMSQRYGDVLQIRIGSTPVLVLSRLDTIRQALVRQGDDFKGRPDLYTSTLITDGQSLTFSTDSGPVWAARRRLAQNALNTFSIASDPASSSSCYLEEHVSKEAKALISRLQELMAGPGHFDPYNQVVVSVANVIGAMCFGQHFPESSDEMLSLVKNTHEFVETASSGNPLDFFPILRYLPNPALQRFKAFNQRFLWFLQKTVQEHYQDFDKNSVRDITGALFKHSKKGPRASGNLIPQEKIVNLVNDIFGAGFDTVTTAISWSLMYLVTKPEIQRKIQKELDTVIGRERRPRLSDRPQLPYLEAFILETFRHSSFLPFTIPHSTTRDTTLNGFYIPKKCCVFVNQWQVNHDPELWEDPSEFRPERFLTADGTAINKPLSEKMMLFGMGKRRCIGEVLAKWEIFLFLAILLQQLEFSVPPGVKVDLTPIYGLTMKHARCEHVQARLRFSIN

[15] = biological target: Cytochrome P450 2C9 (Homo sapiens, UniProt P11712); experiment: Inhibition of CYP2C9 (unknown origin); format: ADME
Cytochrome P450 2C9, sequence (P11712 whole entry): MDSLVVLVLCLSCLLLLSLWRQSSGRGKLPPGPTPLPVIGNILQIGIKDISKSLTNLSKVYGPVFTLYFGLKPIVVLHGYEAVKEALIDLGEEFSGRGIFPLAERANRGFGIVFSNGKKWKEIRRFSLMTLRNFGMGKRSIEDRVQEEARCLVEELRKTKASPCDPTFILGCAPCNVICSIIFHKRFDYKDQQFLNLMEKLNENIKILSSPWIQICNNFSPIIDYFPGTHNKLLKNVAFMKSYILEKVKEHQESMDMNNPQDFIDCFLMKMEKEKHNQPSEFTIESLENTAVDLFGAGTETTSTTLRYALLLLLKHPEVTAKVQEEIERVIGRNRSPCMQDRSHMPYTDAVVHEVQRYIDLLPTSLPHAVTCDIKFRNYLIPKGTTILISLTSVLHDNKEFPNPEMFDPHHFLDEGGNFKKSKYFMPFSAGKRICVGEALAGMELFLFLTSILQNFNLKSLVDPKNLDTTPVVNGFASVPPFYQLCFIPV

[16] = biological target: Cytochrome P450 2C19 (Homo sapiens, UniProt P33261); experiment: Inhibition of CYP2C19 (unknown origin); format: ADME
Cytochrome P450 2C19, sequence (P33261 whole entry): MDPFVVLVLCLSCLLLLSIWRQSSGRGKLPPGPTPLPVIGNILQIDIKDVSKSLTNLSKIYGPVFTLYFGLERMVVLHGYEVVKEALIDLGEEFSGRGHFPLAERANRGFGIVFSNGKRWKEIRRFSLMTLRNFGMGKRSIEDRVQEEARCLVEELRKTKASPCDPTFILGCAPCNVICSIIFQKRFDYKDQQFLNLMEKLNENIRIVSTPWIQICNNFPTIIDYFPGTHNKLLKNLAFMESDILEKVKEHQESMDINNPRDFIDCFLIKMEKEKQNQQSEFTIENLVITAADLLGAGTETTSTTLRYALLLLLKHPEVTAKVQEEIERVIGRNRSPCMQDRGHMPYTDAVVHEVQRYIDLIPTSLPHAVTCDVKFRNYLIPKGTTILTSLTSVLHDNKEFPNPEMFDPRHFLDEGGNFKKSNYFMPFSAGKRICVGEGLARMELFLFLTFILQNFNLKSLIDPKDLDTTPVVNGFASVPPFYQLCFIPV

[17] = biological target: Cytochrome P450 2D6 (Homo sapiens, UniProt P10635); experiment: Inhibition of CYP2D6 (unknown origin); format: ADME
Cytochrome P450 2D6, sequence (P10635 whole entry): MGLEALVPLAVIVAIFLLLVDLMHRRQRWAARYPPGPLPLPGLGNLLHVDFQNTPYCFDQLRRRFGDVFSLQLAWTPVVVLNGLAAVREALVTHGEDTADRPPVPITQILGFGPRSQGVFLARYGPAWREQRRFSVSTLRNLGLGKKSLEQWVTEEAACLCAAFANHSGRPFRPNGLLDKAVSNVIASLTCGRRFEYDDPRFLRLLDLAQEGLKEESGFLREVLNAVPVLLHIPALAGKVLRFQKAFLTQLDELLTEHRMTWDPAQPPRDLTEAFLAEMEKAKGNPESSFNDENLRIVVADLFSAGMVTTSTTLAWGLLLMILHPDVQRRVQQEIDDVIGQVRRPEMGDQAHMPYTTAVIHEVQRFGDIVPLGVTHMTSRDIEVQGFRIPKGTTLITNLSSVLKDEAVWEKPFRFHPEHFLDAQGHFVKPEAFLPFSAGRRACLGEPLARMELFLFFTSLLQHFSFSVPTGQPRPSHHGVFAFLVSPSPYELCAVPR

[18] = biological target: Cytochrome P450 3A4 (Homo sapiens, UniProt P08684); experiment: Inhibition of CYP3A4 (unknown origin); format: ADME
Cytochrome P450 3A4, sequence (P08684 whole entry): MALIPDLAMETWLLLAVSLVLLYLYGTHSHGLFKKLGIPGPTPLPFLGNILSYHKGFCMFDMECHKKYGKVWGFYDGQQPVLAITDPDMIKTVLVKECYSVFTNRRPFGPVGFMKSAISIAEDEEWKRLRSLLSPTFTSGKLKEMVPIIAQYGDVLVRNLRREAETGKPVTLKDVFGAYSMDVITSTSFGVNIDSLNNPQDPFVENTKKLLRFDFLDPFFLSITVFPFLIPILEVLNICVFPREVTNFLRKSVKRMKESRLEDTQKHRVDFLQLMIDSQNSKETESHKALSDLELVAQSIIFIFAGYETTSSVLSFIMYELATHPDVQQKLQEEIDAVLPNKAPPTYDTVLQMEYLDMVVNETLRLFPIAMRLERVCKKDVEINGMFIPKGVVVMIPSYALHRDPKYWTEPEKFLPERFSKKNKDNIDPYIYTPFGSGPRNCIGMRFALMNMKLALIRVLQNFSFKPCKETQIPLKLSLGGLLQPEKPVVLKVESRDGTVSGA

[19] = biological target: Voltage-gated inwardly rectifying potassium channel KCNH2 (Homo sapiens, UniProt Q12809); experiment: Inhibition of human ERG by flux assay
Voltage-gated inwardly rectifying potassium channel KCNH2, sequence (Q12809 whole entry): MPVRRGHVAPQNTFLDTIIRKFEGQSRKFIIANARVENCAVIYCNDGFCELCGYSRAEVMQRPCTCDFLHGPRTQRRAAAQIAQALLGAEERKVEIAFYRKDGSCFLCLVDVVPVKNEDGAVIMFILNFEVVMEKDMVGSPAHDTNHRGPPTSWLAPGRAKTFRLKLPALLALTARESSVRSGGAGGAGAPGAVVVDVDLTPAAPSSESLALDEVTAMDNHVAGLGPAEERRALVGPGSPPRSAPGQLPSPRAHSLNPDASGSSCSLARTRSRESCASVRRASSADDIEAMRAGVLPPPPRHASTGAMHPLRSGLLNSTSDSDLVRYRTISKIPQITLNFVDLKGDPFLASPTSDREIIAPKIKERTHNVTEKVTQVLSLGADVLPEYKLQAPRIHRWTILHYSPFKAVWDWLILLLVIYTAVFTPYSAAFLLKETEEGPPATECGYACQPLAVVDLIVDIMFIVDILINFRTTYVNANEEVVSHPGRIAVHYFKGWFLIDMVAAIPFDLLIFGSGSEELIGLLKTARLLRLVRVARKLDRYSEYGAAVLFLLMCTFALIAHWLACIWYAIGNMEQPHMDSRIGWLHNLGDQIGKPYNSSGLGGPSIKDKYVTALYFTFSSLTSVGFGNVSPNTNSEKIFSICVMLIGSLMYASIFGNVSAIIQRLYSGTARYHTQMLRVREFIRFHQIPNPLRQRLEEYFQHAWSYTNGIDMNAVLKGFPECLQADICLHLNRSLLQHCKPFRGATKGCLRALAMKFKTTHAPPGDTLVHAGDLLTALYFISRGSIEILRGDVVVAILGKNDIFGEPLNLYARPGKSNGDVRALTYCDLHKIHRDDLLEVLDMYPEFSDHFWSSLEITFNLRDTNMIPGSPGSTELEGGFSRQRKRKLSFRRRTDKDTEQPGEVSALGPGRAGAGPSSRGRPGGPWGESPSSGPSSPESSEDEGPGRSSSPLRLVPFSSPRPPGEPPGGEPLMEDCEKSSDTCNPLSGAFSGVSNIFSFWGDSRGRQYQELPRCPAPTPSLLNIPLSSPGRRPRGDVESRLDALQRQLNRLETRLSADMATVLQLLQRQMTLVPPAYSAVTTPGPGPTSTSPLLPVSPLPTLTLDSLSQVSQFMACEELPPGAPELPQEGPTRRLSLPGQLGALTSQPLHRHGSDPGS

IC50 [1]	remaining at 10 min, 0.5 µM [3]	remaining at 10 min, 0.5 µM [4]	Papp [5]	IC50 [10]	SMILES	IC50 [2]	also measured
6.2 nM	58%	62%	84.9 ×10⁻⁶ cm/s		Cc1noc(C)c1-c1cc(C(N)=O)c2c3ccc(C(C)(C)O)cc3n(Cc3ccccc3)c2c1	35 nM	Papp A→B [6]: 7.6 ×10⁻⁶ cm/s; Papp B→A [7]: 20.2 ×10⁻⁶ cm/s; Cmax [8]: 7.1 µM; AUC(0-t) at 7 h [9]: 27.1 µM·h
13 nM	9%	19%	80.9 ×10⁻⁶ cm/s	4.2 nM	Cc1noc(C)c1-c1cc(C(N)=O)c2c3cc(C(=O)N4C[C@@H](C)O[C@@H](C)C4)ccc3n(Cc3ccccc3)c2c1	38 nM	
23 nM			74.9 ×10⁻⁶ cm/s	4.5 nM	Cc1noc(C)c1-c1cc(C(N)=O)c2c3cc(C(C)(C)O)ccc3n(Cc3ccccc3)c2c1	95 nM	
10 nM	24%	0%	58.4 ×10⁻⁶ cm/s	5.4 nM	Cc1noc(C)c1-c1cc(C(N)=O)c2c3ccc(C(C)(C)O)cc3n([C@@H](c3ccccc3)C3CCOCC3)c2c1	46 nM	
23 nM	75%	55%	40.2 ×10⁻⁶ cm/s	9.5 nM	Cc1noc(C)c1-c1cc(C(N)=O)c2c3ccc(C(C)(C)O)cc3n(CC3CCOCC3)c2c1	128 nM	
0.9 nM	52%	20%	67.1 ×10⁻⁶ cm/s	1 nM	Cc1noc(C)c1-c1cc(C(N)=O)c2c3ccc(C(C)(C)O)cc3n([C@H](c3ccccc3)C3CCOCC3)c2c1	3.1 nM	Papp A→B [6]: 3.4 ×10⁻⁶ cm/s; Papp B→A [7]: 36.4 ×10⁻⁶ cm/s; Cmax [8]: 0.4 µM; AUC(0-t) at 7 h [9]: 1 µM·h
268 nM				131 nM	Cc1nocc1-c1cc(C(N)=O)c2c(c1)c1ccc(C(=O)N3C[C@@H](C)O[C@@H](C)C3)cc1n2CC1CC1	2960 nM	
0.4 nM	52%	33%	70.2 ×10⁻⁶ cm/s	1.9 nM	Cc1noc(C)c1-c1cc(C(N)=O)c2c3ccc(C(C)(C)O)cc3n([C@H](c3ccc(F)cc3)C3CCOCC3)c2c1	3.1 nM	Cmax [8]: 0.9 µM; AUC(0-t) at 7 h [9]: 4.3 µM·h; efflux ratio [11]: 6.1
1160 nM				712 nM	Cc1noc(C)c1-c1cc(C(N)=O)c2[nH]c3cc(C(=O)N4CCOCC4)ccc3c2c1	> 2500 nM	
291 nM				35 nM	Cc1nnn(C)c1-c1cc(C(N)=O)c2c(c1)c1ccc(C(=O)N3C[C@@H](C)O[C@@H](C)C3)cc1n2CC1CC1	796 nM	
1.5 nM	54%	42%	98.4 ×10⁻⁶ cm/s	1.9 nM	Cc1noc(C)c1-c1cnc2c3ccc(C(C)(C)O)cc3n([C@H](c3ccccc3)C3CCOCC3)c2c1	8.4 nM	Papp A→B [6]: 26.3 ×10⁻⁶ cm/s; Papp B→A [7]: 22.9 ×10⁻⁶ cm/s; Cmax [8]: 9.2 µM; AUC(0-t) at 7 h [9]: 45.7 µM·h; efflux ratio [11]: 0.9; IC50 [12]: 1.7 nM; IC50 [13]: 1.9 nM; IC50 [14]: > 20000 nM; IC50 [15]: 4100 nM; IC50 [16]: 1500 nM; IC50 [17]: > 20000 nM; IC50 [18]: > 20000 nM; IC50 [19]: 51000 nM
51 nM				23 nM	Cc1noc(C)c1-c1cc(C(N)=O)c2c(c1)c1ccc(C(=O)N3C[C@@H](C)O[C@@H](C)C3)cc1n2CC1CC1	525 nM	
93 nM				39 nM	Cc1noc(C)c1-c1cc(C(N)=O)c2c(c1)c1ccc(C(=O)N3CCOCC3)cc1n2CC1CC1	414 nM	
1240 nM				530 nM	Cc1n[nH]c(C)c1-c1cc(C(N)=O)c2c(c1)c1ccc(C(=O)N3C[C@@H](C)O[C@@H](C)C3)cc1n2CC1CC1	7600 nM	
3.9 nM	13%	26%	68.2 ×10⁻⁶ cm/s	1.5 nM	Cc1noc(C)c1-c1cc(C(N)=O)c2c3ccc(C(C)(C)O)cc3n(C(c3ccccc3)c3ccccc3)c2c1	11 nM	
645 nM				292 nM	Cc1oncc1-c1cc(C(N)=O)c2c(c1)c1ccc(C(=O)N3C[C@@H](C)O[C@@H](C)C3)cc1n2CC1CC1	3530 nM	
259 nM				69 nM	Cc1noc(C)c1-c1cc(C(N)=O)c2c3cc(C(=O)N4C[C@@H](C)O[C@@H](C)C4)ccc3n(CC3CC3)c2c1	422 nM	
